Read-outs that look alike come from different tables or passages of the source.
Tests used:
[1] = target: cdk4/D (Homo sapiens, UniProt P11802); test: Cyclin-Dependent Kinase 4 (cdk4) Assay; format: biochemical; conditions: read-out: cdk4/D IC50
[2] = target: cdc2/cyclinB (Homo sapiens, UniProt P06493); test: Cyclin-Dependent Kinase Assay cdc2/cyclinB
[3] = target: cdk2/cyclinA (Homo sapiens, UniProt P24941); test: Cyclin-Dependent Kinase Assay cdk2/cyclinA
[4] = target: cdk2/cyclinE (Homo sapiens, UniProt P24941); test: Cyclin-Dependent Kinase Assay cdk2/cyclinE
Method: Cyclin-Dependent Kinase Assays (cdk2/cyclinE, cdk2/cyclinA, cdc2/cyclinB)
All components except the ATP were added to the wells, and the plate was placed on a plate mixer for 2 minutes. The reaction was begun by addition of [^32P]ATP, and the plate was incubated at 25° C. for 15 minutes. The reaction was terminated by addition of 0.1 mL of 20% TCA. The plate was kept at 4° C. for at least 1 hour to allow the substrate to precipitate. The wells were then washed five times with 0.2 mL of 10% TCA and ^32p incorporation determined with a beta plate counter (Wallac Inc., Gaithersburg, Md.).

[5] = target: Cdk5/p25 (Homo sapiens, UniProt Q00535); test: Cyclin-Dependent Kinase 5 High Throughput Screening (cdk5-HTS) Assay; format: biochemical; conditions: high throughput screen
How it was run: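 IC50 determined from 33P incorporation into GST-RbCOOH captured on glutathione plates and read by scintillation counting. Reaction: 1.0 μg/mL Cdk5/p25, 20 μM [γ33P]ATP, pH 7.4 Tris buffer with MgCl2 and DTT, 30 min at room temperature, stopped with EDTA.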

cdk4/D, sequence (P11802 whole entry): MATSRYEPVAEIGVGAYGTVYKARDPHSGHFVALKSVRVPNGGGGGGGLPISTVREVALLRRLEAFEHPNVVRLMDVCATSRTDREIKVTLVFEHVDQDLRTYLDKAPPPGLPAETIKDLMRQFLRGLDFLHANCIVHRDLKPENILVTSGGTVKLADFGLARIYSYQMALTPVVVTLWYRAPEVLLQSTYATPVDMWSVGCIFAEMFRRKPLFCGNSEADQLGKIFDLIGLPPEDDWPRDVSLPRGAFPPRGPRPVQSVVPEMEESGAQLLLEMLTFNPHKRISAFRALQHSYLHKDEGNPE
cdk4/D, sequence (P24385 whole entry, further chain): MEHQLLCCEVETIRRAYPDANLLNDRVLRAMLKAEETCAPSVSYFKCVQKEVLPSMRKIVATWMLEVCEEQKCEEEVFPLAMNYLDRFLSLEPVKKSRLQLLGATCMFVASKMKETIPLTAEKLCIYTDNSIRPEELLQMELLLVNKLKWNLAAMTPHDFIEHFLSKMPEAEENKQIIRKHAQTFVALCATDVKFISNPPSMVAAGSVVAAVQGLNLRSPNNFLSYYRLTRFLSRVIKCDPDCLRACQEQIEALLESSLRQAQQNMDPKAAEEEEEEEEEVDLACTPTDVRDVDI
cdc2/cyclinB, sequence (P06493 whole entry): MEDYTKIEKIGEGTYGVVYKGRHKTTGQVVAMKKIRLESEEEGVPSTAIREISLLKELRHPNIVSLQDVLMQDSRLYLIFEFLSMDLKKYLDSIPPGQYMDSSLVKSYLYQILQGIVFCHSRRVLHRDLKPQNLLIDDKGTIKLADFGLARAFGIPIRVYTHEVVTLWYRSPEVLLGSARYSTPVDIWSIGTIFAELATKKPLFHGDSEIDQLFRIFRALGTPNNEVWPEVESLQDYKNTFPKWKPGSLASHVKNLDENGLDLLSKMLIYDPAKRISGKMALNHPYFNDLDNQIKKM
cdc2/cyclinB, sequence (P14635 whole entry, further chain): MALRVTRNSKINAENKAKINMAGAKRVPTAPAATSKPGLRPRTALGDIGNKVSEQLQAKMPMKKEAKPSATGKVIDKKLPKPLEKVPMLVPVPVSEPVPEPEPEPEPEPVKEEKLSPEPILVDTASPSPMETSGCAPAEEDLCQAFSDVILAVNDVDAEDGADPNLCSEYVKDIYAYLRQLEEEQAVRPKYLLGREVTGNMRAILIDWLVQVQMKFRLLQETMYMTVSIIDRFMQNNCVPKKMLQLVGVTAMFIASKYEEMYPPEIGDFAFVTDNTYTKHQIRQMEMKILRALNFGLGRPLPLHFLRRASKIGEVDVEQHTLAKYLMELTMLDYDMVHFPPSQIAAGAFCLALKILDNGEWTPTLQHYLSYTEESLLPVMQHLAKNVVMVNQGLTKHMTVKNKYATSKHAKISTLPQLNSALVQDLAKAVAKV

Molecule	IC50 [1]	IC50 [2]	IC50 ([3]; cdk2/A IC50)	IC50 ([4]; cdk2/E IC50)	IC50 [5]	IC50 ([2]; read-out: cdk1/B IC50)	IC50 ([3]; read-out: cdk2/A IC50)	IC50 ([4]; read-out: cdk2/E IC50)	IC50 [3]	IC50 [4]
CCCn1c(=O)ccc2cnc(Nc3ccc4[nH]ncc4c3)nc21 [Example 324, 2-(1H-Indazol-5-ylamino)-8-propyl-8H-pyrido[2,3-d]pyrimidin-7-one]	214 nM	82.5 nM	145 nM	53 nM	32 nM	–	–	–	–	–
CCC(C)n1c(=O)ccc2cnc(Nc3ccc(C)c(Cl)c3)nc21 (centres unmarked) [Example 467, 8-sec-Butyl-2-(3-chloro-4-methyl-phenylamino)-8H-pyrido[2,3-d]pyrimidin-7-one]	96 nM	190 nM	270 nM	97 nM	8 nM	–	–	–	–	–
CCCCn1c(=O)ccc2cnc(Nc3ccc(OC)c(OC)c3)nc21 [Example 386, 8-Butyl-2-(3,4-dimethoxy-phenylamino)-8H-pyrido[2,3-d]pyrimidin-7-one]	620 nM	83 nM	200 nM	90.7 nM	23.5 nM	–	–	–	–	–
O=c1ccc2cnc(Nc3ccc(F)c(C(F)(F)F)c3)nc2n1CC1CC1 [Example 570, 8-Cyclopropylmethyl-2-(4-fluoro-3-trifluoromethyl-phenylamino)-8H-pyrido[2,3-d]pyrimidin-7-one]	680 nM	170 nM	430 nM	63 nM	50 nM	–	–	–	–	–
Cc1ccc(Nc2ncc3ccc(=O)n(C4CCCC4)c3n2)cc1Cl [Example 545, 2-(3-Chloro-4-methyl-phenylamino)-8-cyclopentyl-8H-pyrido[2,3-d]pyrimidin-7-one]	55 nM	180 nM	310 nM	140 nM	25 nM	–	–	–	–	–
O=c1ccc2cnc(Nc3ccc4nn[nH]c4c3)nc2n1CC(F)(F)F [Example 595, 2-(1H-Benzotriazol-5-ylamino)-8-(2,2,2-trifluoro-ethyl)-8H1-pyrido[2,3-d]pyrimidin-7-one]	2000 nM	2000 nM	1450 nM	510 nM	155 nM	–	–	–	–	–
CCCCn1c(=O)ccc2cnc(Nc3ccc(F)c(C)c3)nc21 [Example 392, 8-Butyl-2-(4-fluoro-3-methyl-phenylamino)-8H-pyrido[2,3-d]pyrimidin-7-one]	760 nM	140 nM	360 nM	77 nM	110 nM	–	–	–	–	–
CCCn1c(=O)ccc2cnc(Nc3ccc(F)c(C(F)(F)F)c3)nc21 [Example 335, 2-(4-Fluoro-3-trifluoromethyl-phenylamino)-8-propyl-8H-pyrido[2,3-d]pyrimidin-7-one]	1600 nM	250 nM	1100 nM	160 nM	340 nM	–	–	–	–	–
CCC(CC)n1c(=O)ccc2cnc(Nc3ccc(OC(F)(F)F)cc3)nc21 [Example 515, 8-(1-Ethyl-propyl)-2-(4-trifluoromethoxy-phenylamino)-8H-pyrido[2,3-d]pyrimidin-7-one]	200 nM	480 nM	670 nM	230 nM	71 nM	–	–	–	–	–
CCCn1c(=O)ccc2cnc(Nc3cc(Cl)cc(Cl)c3)nc21 [Example 319, 2-(3,5-Dichloro-phenylamino)-8-propyl-8H-pyrido[2,3-d]pyrimidin-7-one]	1550 nM	159 nM	855 nM	161 nM	106 nM	–	–	–	–	–
O=c1ccc2cnc(Nc3ccccc3)nc2n1CC(F)(F)F [Example 601, 2-Phenylamino-8-(2,2,2-trifluoro-ethyl)-8H-pyrido[2,3-d]pyrimidin-7-one]	1450 nM	1650 nM	2850 nM	1200 nM	400 nM	–	–	–	–	–
CCC(CC)n1c(=O)ccc2cnc(Nc3ccc(OC)c(F)c3)nc21 [Example 505, 8-(1-Ethyl-propyl)-2-(3-fluoro-4-methoxy-phenylamino)-8H-pyrido[2,3-d]pyrimidin-7-one]	34 nM	73 nM	220 nM	67 nM	14 nM	–	–	–	–	–
NS(=O)(=O)c1cccc(Nc2ncc3ccc(=O)n(C4CCCC4)c3n2)c1 [Example 547, 3-(8-Cyclopentyl-7-oxo-7,8-dihydro-pyrido[2,3-d]pyrimidin-2-ylamino)-benzenesulfonamide]	54 nM	300 nM	590 nM	110 nM	66 nM	–	–	–	–	–
CC(C)n1c(=O)ccc2cnc(Nc3cc(Cl)c(O)c(Cl)c3)nc21 [Example 412, 2-(3,5-Dichloro-4-hydroxy-phenylamino)-8-isopropyl-8H-pyrido[2,3-d]pyrimidin-7-one]	2000 nM	715 nM	713 nM	512 nM	278 nM	–	–	–	–	–
CC(C)n1c(=O)ccc2cnc(Nc3cccc(S(N)(=O)=O)c3)nc21 [Example 430, 3-(8-Isopropyl-7-oxo-7,8-dihydro-pyrido[2,3-d]pyrimidin-2-ylamino)-benzenesulfonamide]	35 nM	180 nM	240 nM	95 nM	15 nM	–	–	–	–	–
CCCCn1c(=O)ccc2cnc(Nc3ccc(I)c(Cl)c3)nc21 [Example 398, 8-Butyl-2-(3-chloro-4-iodo-phenylamino)-8H-pyrido[2,3-d]pyrimidin-7-one]	230 nM	420 nM	1400 nM	350 nM	88 nM	–	–	–	–	–
CCC(CC)n1c(=O)ccc2cnc(Nc3ccc(O)c(C(=O)O)c3)nc21 [Example 524, 5-[8-(1-Ethyl-propyl)-7-oxo-7,8-dihydro-pyrido[2,3-d]pyrimidin-2-ylamino]-2-hydroxy-benzoic acid]	2000 nM	620 nM	650 nM	450 nM	290 nM	–	–	–	–	–
CCC(C)n1c(=O)ccc2cnc(Nc3ccc4[nH]ccc4c3)nc21 (centres unmarked) [Example 447, 8-sec-Butyl-2-(1H-indol-5-ylamino)-8H-pyrido[2,3-d]pyrimidin-7-one]	44.5 nM	89.5 nM	145 nM	60.7 nM	19 nM	–	–	–	–	–
CCn1c(=O)ccc2cnc(Nc3cc(OC)cc(C(F)(F)F)c3)nc21 [Example 300, 8-Ethyl-2-(3-methoxy-5-trifluoromethyl-phenylamino)-8H-pyrido[2,3-d]pyrimidin-7-one]	2800 nM	620 nM	3900 nM	950 nM	430 nM	–	–	–	–	–
CCCn1c(=O)ccc2cnc(Nc3ccc(C)c(C)c3)nc21 [Example 318, 2-(3,4-Dimethyl-phenylamino)-8-propyl-8H-pyrido[2,3-d]pyrimidin-7-one]	430 nM	216 nM	1280 nM	289 nM	69.1 nM	–	–	–	–	–
2-(3-Chloro-4-iodo-phenylamino)-8-propyl-8H-pyrido[2,3-d]pyrimidin-7-one [Example 573]	190 nM	–	–	–	100 nM	260 nM	820 nM	180 nM	–	–
CCCn1c(=O)ccc2cnc(Nc3cc([N+](=O)[O-])ccc3F)nc21 [Example 333, 2-(2-Fluoro-5-nitro-phenylamino)-8-propyl-8H-pyrido[2,3-d]pyrimidin-7-one]	670 nM	1300 nM	1700 nM	340 nM	260 nM	–	–	–	–	–
CCC(CC)n1c(=O)ccc2cnc(Nc3ccc(O)c(Cl)c3)nc21 [Example 496, 2-(3-Chloro-4-hydroxy-phenylamino)-8-(1-ethyl-propyl)-8H-pyrido[2,3-d]pyrimidin-7-one]	280 nM	24 nM	89.5 nM	31 nM	17.5 nM	–	–	–	–	–
CCC(C)n1c(=O)ccc2cnc(Nc3cccc([N+](=O)[O-])c3)nc21 (centres unmarked) [Example 453, 8-sec-Butyl-2-(3-nitro-phenylamino)-8H-pyrido[2,3-d]pyrimidin-7-one]	330 nM	51.5 nM	105 nM	52.7 nM	37 nM	–	–	–	–	–
CC(C)n1c(=O)ccc2cnc(Nc3ccc(F)c(C(F)(F)F)c3)nc21 [Example 407, 2-(4-Fluoro-3-trifluoromethyl-phenylamino)-8-isopropyl-8H-pyrido[2,3-d]pyrimidin-7-one]	980 nM	320 nM	460 nM	680 nM	56 nM	–	–	–	–	–
Cc1cc(Nc2ncc3ccc(=O)n(C(C)C)c3n2)cc(C)c1O [Example 441, 2-(4-Hydroxy-3,5-dimethyl-phenylamino)-8-isopropyl-8H-pyrido[2,3-d]pyrimidin-7-one]	890 nM	290 nM	290 nM	470 nM	150 nM	–	–	–	–	–
CCC(CC)n1c(=O)ccc2cnc(Nc3ccc(C)c(F)c3)nc21 [Example 482, 8-(1-Ethyl-propyl)-2-(3-fluoro-4-methyl-phenylamino)-8H-pyrido[2,3-d]pyrimidin-7-one]	166 nM	214 nM	–	–	63.2 nM	–	–	–	597 nM	152 nM
COc1ccc(Nc2ncc3ccc(=O)n(CC(F)(F)F)c3n2)cc1OC [Example 600, 2-(3,4-Dimethoxy-phenylamino)-8-(2,2,2-trifluoro-ethyl)-8H-pyrido[2,3-d]pyrimidin-7-one]	1780 nM	905 nM	1600 nM	970 nM	124 nM	–	–	–	–	–

— patent US20040224958A1, “Pyridopyrimidinone derivatives for treatment of neurodegenerative disease” (priority 2000, published 2004)
